# Experimental data taken from patent US20180128830A1, “DETECTION OF HUMAN CYTOMEGALOVIRUS IN BREAST CANCER” (priority 2015, published 2018).
# Values joined by “and” are separate entries in the source; they are usually repeats but may differ in a detail not shown here. Identical values can stand only once.
# Key:
# MDA-MB-231 cells [1] = assay: Transcriptional profiling, Human Tumor Metastasis RT2 Profiler PCR Array; assay type: cell-based; conditions: 100 ng/mL, 5 hrs
# Description: RNA was harvested from 10×10^6 MDA-MB-231 cells that were mock treated or treated with 100 ng/mL cmvIL-10 or hIL-10 for 5 hrs using the RNeasy Midi Kit and RNAse-Free DNase set (Qiagen, Valencia, Calif.). From the isolated RNA, cDNA was prepared using the RT^2 First Strand Kit (SA Biosciences, Frederick, Md.) and subsequently loaded into a 96-well breast cancer metastasis profiler PCR array (PAHS-028ZD) with system RT^2 SYBR Green Mastermix (SA Biosciences). The plates were run using the CFX96 Real-Time system cycler (BioRad, Hercules, Calif.) with the following amplification program: 95° C. for 10 min, 95° C. for […] with a slow ramp rate for 1.0 c/sec and 60° C. for 1 min. The data from three biological replicates for each treatment was analyzed by the ΔΔCT method according to manufacturer's instructions using the RT^2 profiler PCR array data analysis program located on the SABiosciences web portal and is reported as fold change relative to control.
# Stat3 = assay: Western blot for Stat3 phosphorylation in MDA-MB-231 cells; assay type: cell-based, human; conditions: 100 ng/ml, 15 min
# Description: For western blotting, cells were treated with 100 ng/ml cmvIL-10, hIL-10, IFNγ or PBS for 15 min, then harvested into cell lysis buffer (150 mM NaCl, 20 mM HEPES, 0.5% Triton-X-100, 1 mM NaOV4, 1 mM EDTA, 0.1% NaN3). Lysates were clarified, proteins were separated via SDS-PAGE, and then transferred to a nitrocellulose membrane. Then membrane was incubated in blocking solution (5% milk+1×TBS-T) for 1 hr, then probed with primary antibody at a 1:1000 dilution (total Stat3 or pStat3, total Stat1 or pStat1) in blocking solution overnight at 4° C. After washing, the membranes were incubated with a 1:2000 dilution of appropriate AP-conjugated secondary antibody and bands were detected using Western Blue stabilized AP substrate (Promega, Madison, Wis.). For analysis of secreted proteins, supernatants were collected at various time points, analyzed by SDS-PAGE and then immunoblotted as above for cmvIL-10, hIL-10, or serpin E1/PAI.
# MDA-MB-231 cells [2] = assay: Migration assay toward EGF (modified Boyden chamber); assay type: cell-based, human; conditions: no EGF, 5 hrs
# Description: Cells were harvested and resuspended at a density of 2×10^6 cells per ml in complete medium. A total volume of 0.1 ml cell suspension (2×10^5 cells) was placed in the upper chamber of a ThinCert filter with 8 μm pores in a 24-well plate (Greiner Bio-One North America, Monroe, Calif.). […] Medium from the lower chamber was collected, used to rinse the bottom of the filter twice, and then centrifuged at 1000 rpm for 10 min. The cell pellet was resuspended in 0.1 ml media and transferred to a white 96-well plate. Viable cell number was quantified using the Cell Titer Glo Assay kit according to the manufacturer's protocol.
substance,measurement,setting,value
hIL-10: purified recombinant human interleukin-10 from R&D Systems,"Fold Change vs. Mock, ACTB",MDA-MB-231 cells [1]; ACTB mRNA,1.3287 fold
same,"Fold Change vs. Mock, APC",MDA-MB-231 cells [1]; APC mRNA,1.0052 fold
same,"Fold Change vs. Mock, B2M",MDA-MB-231 cells [1]; B2M mRNA,0.9897 fold
same,"Fold Change vs. Mock, BRMS1",MDA-MB-231 cells [1]; BRMS1 mRNA,1.1154 fold
same,"Fold Change vs. Mock, CCL7",MDA-MB-231 cells [1]; CCL7 mRNA,0.9314 fold
same,"Fold Change vs. Mock, CD44",MDA-MB-231 cells [1]; CD44 mRNA,1.3402 fold
same,"Fold Change vs. Mock, CD82",MDA-MB-231 cells [1]; CD82 mRNA,1.1019 fold
same,"Fold Change vs. Mock, CDH1",MDA-MB-231 cells [1]; CDH1 mRNA,0.7618 fold
same,"Fold Change vs. Mock, CDH6",MDA-MB-231 cells [1]; CDH6 mRNA,0.9314 fold
same,"Fold Change vs. Mock, CDH11",MDA-MB-231 cells [1]; CDH11 mRNA,1.0425 fold
same,"Fold Change vs. Mock, CDKN2A",MDA-MB-231 cells [1]; CDKN2A mRNA,0.9314 fold
same,"Fold Change vs. Mock, CHD4",MDA-MB-231 cells [1]; CHD4 mRNA,1.1115 fold
same,"Fold Change vs. Mock, COL4A2",MDA-MB-231 cells [1]; COL4A2 mRNA,1.51 fold and 1.5131 fold
same,"Fold Change vs. Mock, CST7",MDA-MB-231 cells [1]; CST7 mRNA,0.8858 fold
same,"Fold Change vs. Mock, CTBP1",MDA-MB-231 cells [1]; CTBP1 mRNA,0.9576 fold
same,"Fold Change vs. Mock, CTNNA1",MDA-MB-231 cells [1]; CTNNA1 mRNA,0.9428 fold
same,"Fold Change vs. Mock, CTSK",MDA-MB-231 cells [1]; CTSK mRNA,0.8482 fold
same,"Fold Change vs. Mock, CTSL1",MDA-MB-231 cells [1]; CTSL1 mRNA,0.8981 fold
same,"Fold Change vs. Mock, CXCL12",MDA-MB-231 cells [1]; CXCL12 mRNA,0.9314 fold
same,"Fold Change vs. Mock, CXCR4",MDA-MB-231 cells [1]; CXCR4 mRNA,0.8751 fold
same,"Fold Change vs. Mock, DENR",MDA-MB-231 cells [1]; DENR mRNA,0.9626 fold
same,"Fold Change vs. Mock, EPHB2",MDA-MB-231 cells [1]; EPHB2 mRNA,0.9028 fold
same,"Fold Change vs. Mock, ETV4",MDA-MB-231 cells [1]; ETV4 mRNA,1.0175 fold
same,"Fold Change vs. Mock, EWSR1",MDA-MB-231 cells [1]; EWSR1 mRNA,1.3104 fold
same,"Fold Change vs. Mock, FAT1",MDA-MB-231 cells [1]; FAT1 mRNA,1.4414 fold
same,"Fold Change vs. Mock, FGFR4",MDA-MB-231 cells [1]; FGFR4 mRNA,0.9693 fold
same,"Fold Change vs. Mock, FLT4",MDA-MB-231 cells [1]; FLT4 mRNA,1.0317 fold
same,"Fold Change vs. Mock, FN1",MDA-MB-231 cells [1]; FN1 mRNA,1.2100 fold
same,"Fold Change vs. Mock, FXYD5",MDA-MB-231 cells [1]; FXYD5 mRNA,1.0479 fold
same,"Fold Change vs. Mock, GAPDH",MDA-MB-231 cells [1]; GAPDH mRNA,1.2121 fold
same,"Fold Change vs. Mock, GNRH1",MDA-MB-231 cells [1]; GNRH1 mRNA,1.1647 fold
same,"Fold Change vs. Mock, HGF",MDA-MB-231 cells [1]; HGF mRNA,0.9314 fold
same,"Fold Change vs. Mock, HPRT1",MDA-MB-231 cells [1]; HPRT1 mRNA,1.3827 fold
same,"Fold Change vs. Mock, HPSE",MDA-MB-231 cells [1]; HPSE mRNA,0.8645 fold
same,"Fold Change vs. Mock, HRAS",MDA-MB-231 cells [1]; HRAS mRNA,1.0625 fold
same,"Fold Change vs. Mock, HTATIP2",MDA-MB-231 cells [1]; HTATIP2 mRNA,0.9138 fold
same,"Fold Change vs. Mock, IGF1",MDA-MB-231 cells [1]; IGF1 mRNA,0.9794 fold
same,"Fold Change vs. Mock, IL1B",MDA-MB-231 cells [1]; IL1B mRNA,0.6771 fold
same,"Fold Change vs. Mock, IL18",MDA-MB-231 cells [1]; IL18 mRNA,0.7526 fold
same,"Fold Change vs. Mock, ITGA7",MDA-MB-231 cells [1]; ITGA7 mRNA,0.8796 fold
same,"Fold Change vs. Mock, ITGB3",MDA-MB-231 cells [1]; ITGB3 mRNA,1.0317 fold
same,"Fold Change vs. Mock, KISS1R",MDA-MB-231 cells [1]; KISS1R mRNA,0.9314 fold
same,"Fold Change vs. Mock, KISS1",MDA-MB-231 cells [1]; KISS1 mRNA,1.5856 fold
same,"Fold Change vs. Mock, KRAS",MDA-MB-231 cells [1]; KRAS mRNA,0.9931 fold
same,"Fold Change vs. Mock, MCAM",MDA-MB-231 cells [1]; MCAM mRNA,1.0353 fold
same,"Fold Change vs. Mock, MDM2",MDA-MB-231 cells [1]; MDM2 mRNA,0.9461 fold
same,"Fold Change vs. Mock, MET",MDA-MB-231 cells [1]; MET mRNA,1.1173 fold
same,"Fold Change vs. Mock, METAP2",MDA-MB-231 cells [1]; METAP2 mRNA,1.0736 fold
same,"Fold Change vs. Mock, MGAT5",MDA-MB-231 cells [1]; MGAT5 mRNA,1.3590 fold
same,"Fold Change vs. Mock, MMP2",MDA-MB-231 cells [1]; MMP2 mRNA,1.5157 fold
same,"Fold Change vs. Mock, MMP3",MDA-MB-231 cells [1]; MMP3 mRNA,0.8080 fold
same,"Fold Change vs. Mock, MMP7",MDA-MB-231 cells [1]; MMP7 mRNA,0.8123 fold
same,"Fold Change vs. Mock, MMP9",MDA-MB-231 cells [1]; MMP9 mRNA,0.9347 fold
same,"Fold Change vs. Mock, MMP10",MDA-MB-231 cells [1]; MMP10 mRNA,0.6866 fold
same,"Fold Change vs. Mock, MMP11",MDA-MB-231 cells [1]; MMP11 mRNA,1.0867 fold
same,"Fold Change vs. Mock, MMP13",MDA-MB-231 cells [1]; MMP13 mRNA,0.9777 fold
same,"Fold Change vs. Mock, MTA1",MDA-MB-231 cells [1]; MTA1 mRNA,0.9395 fold
same,"Fold Change vs. Mock, MTSS1",MDA-MB-231 cells [1]; MTSS1 mRNA,1.2397 fold
same,"Fold Change vs. Mock, MYC",MDA-MB-231 cells [1]; MYC mRNA,0.7423 fold
same,"Fold Change vs. Mock, MYCL1",MDA-MB-231 cells [1]; MYCL1 mRNA,1.0644 fold
same,"Fold Change vs. Mock, NF2",MDA-MB-231 cells [1]; NF2 mRNA,1.3496 fold
same,"Fold Change vs. Mock, NME1",MDA-MB-231 cells [1]; NME1 mRNA,1.1000 fold
same,"Fold Change vs. Mock, NME4",MDA-MB-231 cells [1]; NME4 mRNA,0.9965 fold
same,"Fold Change vs. Mock, NR4A3",MDA-MB-231 cells [1]; NR4A3 mRNA,0.8151 fold
same,"Fold Change vs. Mock, PLAUR",MDA-MB-231 cells [1]; PLAUR (uPAR) mRNA,1.87 fold and 1.8628 fold
same,"Fold Change vs. Mock, PNN",MDA-MB-231 cells [1]; PNN mRNA,1.2901 fold
same,"Fold Change vs. Mock, PTEN",MDA-MB-231 cells [1]; PTEN mRNA,0.8645 fold
same,"Fold Change vs. Mock, RB1",MDA-MB-231 cells [1]; RB1 mRNA,0.9298 fold
same,"Fold Change vs. Mock, RORB",MDA-MB-231 cells [1]; RORB mRNA,0.8827 fold
same,"Fold Change vs. Mock, RPLP0",MDA-MB-231 cells [1]; RPLP0 mRNA,1.0000 fold
same,"Fold Change vs. Mock, RPSA",MDA-MB-231 cells [1]; RPSA mRNA,1.0886 fold
same,"Fold Change vs. Mock, SERPINE1",MDA-MB-231 cells [1]; SERPINE1 (PAI-1) mRNA,3.12 fold and 3.0262 fold
same,"Fold Change vs. Mock, SET",MDA-MB-231 cells [1]; SET mRNA,0.9234 fold
same,"Fold Change vs. Mock, SMAD2",MDA-MB-231 cells [1]; SMAD2 mRNA,0.7859 fold
same,"Fold Change vs. Mock, SMAD4",MDA-MB-231 cells [1]; SMAD4 mRNA,0.8279 fold
same,"Fold Change vs. Mock, SRC",MDA-MB-231 cells [1]; SRC mRNA,0.9760 fold
same,"Fold Change vs. Mock, SSTR2",MDA-MB-231 cells [1]; SSTR2 mRNA,0.7120 fold
same,"Fold Change vs. Mock, SYK",MDA-MB-231 cells [1]; SYK mRNA,0.9314 fold
same,"Fold Change vs. Mock, TCF20",MDA-MB-231 cells [1]; TCF20 mRNA,0.9676 fold
same,"Fold Change vs. Mock, TGEB1","MDA-MB-231 cells [1]; TGEB1 (Transforming growth factor, beta 1) mRNA",0.9931 fold
same,"Fold Change vs. Mock, TIMP2",MDA-MB-231 cells [1]; TIMP2 mRNA,0.8601 fold
same,"Fold Change vs. Mock, TIMP3",MDA-MB-231 cells [1]; TIMP3 mRNA,0.7631 fold
same,"Fold Change vs. Mock, TIMP4",MDA-MB-231 cells [1]; TIMP4 mRNA,0.9122 fold
same,"Fold Change vs. Mock, TNFSF10",MDA-MB-231 cells [1]; TNFSF10 mRNA,0.7955 fold
same,"Fold Change vs. Mock, TP53",MDA-MB-231 cells [1]; TP53 mRNA,0.8873 fold
same,"Fold Change vs. Mock, TRPM1",MDA-MB-231 cells [1]; TRPM1 mRNA,0.9314 fold
same,"Fold Change vs. Mock, TSHR",MDA-MB-231 cells [1]; TSHR mRNA,0.9314 fold
same,"Fold Change vs. Mock, VEGFA",MDA-MB-231 cells [1]; VEGFA mRNA,0.5987 fold
same,VEGFA fold change expressed as negative fold (down-regulation),MDA-MB-231 cells [1]; VEGFA mRNA,1.67 fold
same,83 kD band of phosphorylated Stat3 (pStat3),Stat3,detected
same,cell movement toward cytokine alone,MDA-MB-231 cells [2],failed to stimulate cell movement
